{"source": "patent US20240352419A1", "about": "“METHODS AND COMPOSITIONS FOR DIFFERENTIATION OF PLURIPOTENT STEM CELLS AND DERIVED HEMATOPOIETIC LINEAGE CELLS” (NUWACELL BIOTECHNOLOGIES CO., LTD., priority 2022, published 2024)", "key": {"hiPSCs": {"tested_on": "hiPSCs", "test": "Directed differentiation of hiPSCs into HE, HP and iNK cells (flow cytometry KDR, CD34, CD56)", "format": "cell-based, human", "details": "for output of CD34+ HP cells / output of CD56+ iNK cells: added during Stage 1-4 (XAV939 5 μM, SB431542 6 μM); for output of CD34+ HP cells: Day 10, vs control, FIG. 8A; for output of CD56+ iNK cells: Day 25, vs control, FIGS. 8B and 8C", "experimental": "hiPSCs were prepared as described in CN108373998B. On Day −1, Embryoid body (EB) formation (Stage 1-1) was carried out by placing individualized hiPSCs in E8 medium containing 10 μM Blebbistatin in T25 flasks on a bellydancer and culture overnight. On Day 0, lateral mesoderm differentiation (Stage 1-2) was initiated by changing the medium to a Stage 1-2 differentiation medium comprising indicated basal medium (see Table 2.1) and supplemented with BMP4 (25 ng/ml), VEGF (50 ng/mL), bFGF (0.5 ng/ml) and CHIR99021 (4 μM) for 2 days. On Day 2, lateral mesoderm differentiation (Stage 1-3) continued for 1 day in a Stage 1-3 differentiation medium comprising indicated basal medium and supplemented with BMP4 (25 ng/mL), VEGF (50 ng/ml) and bFGF (0.5 ng/ml) and CHIR99021 (1 μM). On Day 3, HE specification (Stage 1-4) was initiated by adding a Stage 1-4 differentiation medium comprising indicated basal medium and supplemented with VEGF (50 ng/mL), bFGF (5 ng/mL), XAV939 (5 μM) for 1 day. On Day 4 (the end of Stage 1-4), EBs were dissociated into single cells and stained with KDR-APC antibody, the percentage of KDR^+ cells were detected by flow cytometry. HP differentiation (Stage 1-5) in was initiated by adding a Stage 1-5 differentiation medium comprising indicated basal medium and supplemented with SCF (10 ng/ml), Flt3L (10 ng/ml), VEGF (15 ng/ml) and bFGF (5 ng/mL) for 3 days. On Day 7 (the end of Stage 1-5), EBs were dissociated into single cells and stained with CD34− APC antibody, the percentage of CD34^+ HP cells was detected by flow cytometry. To initiate the differentiation from HP cells into iNK cells (Stage 2), EBs were collected and seeded in 6-well-plates coated with matrix proteins, DLL4 and VCAM1, in a Stage 2 differentiation medium comprising NKSFM and supplemented with SCF (20 ng/mL), Flt3L (10 ng/mL), IL-7 (25 ng/mL, Peprotech), IL-3 (5 ng/mL, Peprotech), IL-2 (700 IU/mL), IL-15 (10 ng/mL, Peprotech) for 14 days. On Day 21 (Stage 2-wk2), derived cells were counted and stained with CD56-PE antibody, the percentage of CD56^+ iNK cells were detected by flow cytometry. […] This improvement is attributed to the addition of NAM, PLT and Heparin sodium in NKSFM as compared with IF-4.\nhiPSCs were prepared as described in CN108373998B. Basal medium used during Stage 2 of differentiation was also evaluated. On Day-1, Embryoid body (EB) formation (Stage 1-1) was carried out by placing individualized hiPSCs in E8 medium containing 10 μM Blebbistatin in T25 flasks on a shaker and cultured overnight. On Day 0, lateral mesoderm differentiation (Stage 1-2) was initiated by changing the medium to a Stage 1-2 differentiation medium comprising IF-4 basal medium and supplemented with BMP4 (25 ng/mL), VEGF (15 ng/mL), bFGF (0.5 ng/mL) and CHIR99021 (4 μM) for 2 days. On Day 2, lateral mesoderm differentiation (Stage 1-3) continued for 1 day in a Stage 1-3 differentiation medium comprising IF-4 basal medium and supplemented with BMP4 (25 ng/ml), VEGF (15 ng/mL) and bFGF (0.5 ng/mL) and CHIR99021 (4 μM). On Day 3, HE specification (Stage 1-4) was initiated by adding a Stage 1-4 differentiation medium comprising IF-4 basal medium and supplemented with VEGF (15 ng/mL), bFGF (5 ng/ml), SB431542 (6 μM) for 1 day. On Day 4 (the end of Stage 1-4), EBs were dissociated into single cells and stained with KDR-APC antibody, the percentage of KDR+ cells was detected by flow cytometry. HP differentiation (Stage 1-5) in was initiated by adding a Stage 1-5 differentiation medium comprising NKSFM and supplemented with SCF (50 ng/ml), Flt3L (10 ng/mL), VEGF (15 ng/mL) and bFGF (5 ng/mL) for 5 days. […]"}, "PBNK cells": {"tested_on": "PBNK cells", "test": "Expansion of PBNK cells from PBMCs (expansion fold, CD56+CD3- percentage by flow cytometry)", "format": "cell-based", "details": "effect of NAM concentration (0-5 mM) in basal medium", "experimental": "The effect of the concentration of nicotinamide (NAM) in an exemplary basal medium on NK cell expansion was evaluated. The above basal medium comprised the following components: IMDM (Sigma):RPMI1640 (Gibco) (50%: 50%); about 1.3 ng/ml of Cupric sulfate, about 3 μM of Ferric sulfate, about 0.432 μg/mL of Zinc sulfate, about 1˜50 ng/ml of Na Selenite, about 110 μg/mL of Sodium pyruvate, 0.1˜20 μg/mL of Insulin, 1˜200 μg/mL of Transferrin, about 1% (v/v) of GlutaMAX-1, 0.1˜20 mg/mL of HSA, 1˜400 μM of MTG, about 80 μg/mL of Ascorbic acid and indicated concentration of NAM. Peripheral blood mononuclear cells (PBMCs) were isolated by density gradient centrifugation using Ficoll-Paque. On Day 0, PBMCs were plated at 1×10^6 cells/mL in a 48-well-plate in the basal medium with NAM (either 0, 1, 2, 2.5, 3, 3.5, 4, or 5 mM) and stimulated with the following reagents for 3 days: immobilized CD16 antibody (Biolegend, 302014) (135 ng/cm^2), IL-2 (700 IU/mL), IL-15 (10 ng/ml) and OK432 (0.01 KE/mL). On day 3, cells were re-suspended in the above basal medium supplemented with IL-2 (700 IU/mL) and IL-15 (10 ng/mL). Fresh medium was added every other day to maintain cell density below 2×10^6 cells/mL. Cells were collect on Day 14 and stained with CD56-PE and CD3-PerCP-Cy5.5 antibodies, the percentage of CD56^+CD3^− NK cells was analyzed by flow cytometry.\nThe effect of heparin sodium concentration in an exemplary NKSFM on NK cell expansion was also evaluated. NKSFM comprised the following components: IMDM (Sigma):DMEM/F12 (Gibco) (50%: 50%); about 20 μM of Ethanolamine, about 1˜50 ng/ml of Na Selenite, about 110 μg/mL of Sodium pyruvate, 0.1˜20 μg/mL of Insulin, 1˜200 μg/mL of Transferrin, about 1% (v/v) of GlutaMAX-1, 0.1˜20 mg/mL of Human serum albumin, 1˜400 μM of MTG, about 80 μg/mL of Ascorbic acid, about 1˜5 mM of NAM, 4% (v/v) of PLT, and indicated concentration of heparin sodium. PBMCs were isolated by density gradient centrifugation using Ficoll-Paque. On Day 0, PBMCs were plated at 1×10^6 cells/mL in a 48-well-plate in NKSFM with heparin sodium (0, 0.5, 1, 3, 10, 30, or 50 μg/mL) and stimulated with the following reagents for 3 days: immobilized CD16 antibody (Biolegend, 302014) (135 ng/cm^2), OK432 (0.01 KE/mL), NeoIL-2 (50 ng/ml), IL-12 (10 ng/mL), IL-18 (50 ng/mL). […] Cells were collect on Day 13 and stained with CD56-PE and CD3-PerCP-Cy5.5 antibodies, the percentage of CD56^+CD3^− NK cells was analyzed by flow cytometry. The specific lysis of K562 tumor cells by NK cells were assessed by CFSE/7-AAD cytotoxicity assay. […] After incubation for 4 hours, cells were stained with 7-AAD (Live/dead staining) and analyzed with flow cytometry.\nThe effect of PLT percentage (v/v) in an exemplary NKSFM on NK cell expansion was evaluated. […]"}, "[1]": {"details": "higher VEGF concentration during Stage 1-5"}}}
{"compound": "VEGF", "values": [{"measurement": "percentage of KDR+ HE cells", "setting": "hiPSCs; different VEGF concentration (15-100 ng/mL) in Stage 1, FIG. 11A", "value": "minimal effects"}, {"measurement": "percentage of CD34+ HP cells", "setting": "hiPSCs; different VEGF concentration (15-100 ng/mL) in Stage 1, FIG. 11B", "value": "significantly impacts"}, {"measurement": "efficiency of further differentiation into iNK cells", "setting": "hiPSCs; different VEGF concentration (15-100 ng/mL) in Stage 1, cell morphology, FIG. 11C", "value": "significantly impacts"}, {"measurement": "differentiation into HP cells and iNK cells", "setting": "hiPSCs; higher VEGF concentration during Stage 1-2 and Stage 1-3", "value": "generally beneficial"}, {"measurement": "differentiation into HP cells", "setting": "hiPSCs; [1]", "value": "generally beneficial"}, {"measurement": "differentiation into iNK cells", "setting": "hiPSCs; [1]", "value": "but not into iNK cells"}, {"measurement": "HP and iNK cell differentiation", "setting": "hiPSCs; higher concentration of VEGF during Stage 1, especially Stage 1-2, 1-3 and 1-4, FIG. 12", "value": "significantly improves"}]}
{"compound": "Oc1nc(-c2ccc(C(F)(F)F)cc2)nc2c1CSCC2", "note": "[XAV939]", "values": [{"measurement": "output of CD34+ HP cells", "setting": "hiPSCs", "value": "significantly promotes"}, {"measurement": "output of CD56+ iNK cells", "setting": "hiPSCs", "value": "significantly promotes"}]}
{"compound": "NC(=O)c1cccnc1", "note": "[NAM, nicotinamide]", "values": [{"measurement": "NK cell expansion fold", "setting": "PBNK cells; Day 14, FIG. 2A", "value": "significantly impacts"}, {"measurement": "percentage of CD56+CD3− NK cells", "setting": "PBNK cells; Day 14, FIG. 2B", "value": "minimal effects"}]}
{"compound": "NC(=O)c1ccc(-c2nc(-c3ccc4c(c3)OCO4)c(-c3ccccn3)[nH]2)cc1", "note": "[SB431542]", "values": [{"measurement": "output of CD34+ HP cells", "setting": "hiPSCs", "value": "improvement in increasing CD34^+ HP cell production at a certain degree"}, {"measurement": "output of CD56+ iNK cells", "setting": "hiPSCs", "value": "does not show any improvement"}]}
{"compound": "Cc1c[nH]c(-c2cnc(NCCNc3ccc(C#N)cn3)nc2-c2ccc(Cl)cc2Cl)n1", "note": "[CHIR99021]", "values": [{"measurement": "differentiation into CD34+ HP cells", "setting": "hiPSCs; higher concentration of CHIR99021 (5-8 μM) during Stage 1-2, FIG. 9A", "value": "generally more advantageous"}, {"measurement": "differentiation into CD56+ iNK cells", "setting": "hiPSCs; higher concentration of CHIR99021 (5-8 μM) during Stage 1-2, FIGS. 9B and 9C", "value": "somewhat disadvantageous"}, {"measurement": "differentiation into CD34+ HP cells", "setting": "hiPSCs; lower concentration of CHIR99021 (0-4 μM) during Stage 1-3, FIG. 10A", "value": "somewhat disadvantageous"}, {"measurement": "differentiation into CD56+ iNK cells", "setting": "hiPSCs; lower concentration of CHIR99021 (0-4 μM) during Stage 1-3, FIGS. 10B and 10C", "value": "generally more advantageous"}]}
